Measurements published in the supplement of paper PMC7214452.
Structures can show the parent of a compound that is named as a salt.

Columns and labels:
Experiment in all cases: normalized area under the dose-response curve (viability relative to DMSO control) (fraction); higher = less sensitive (more viable cells)
Details in all cases: exposure time not given
AMO1 (cancer type: MM) = system: AMO1 (cancer type: MM)
Experimental: (§1)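 25 myeloma and 15 non-Hodgkin lymphoma cell lines were exposed to each of 76 drugs as 7-point log dilutions (0.01 nM–10 µM) in duplicate. Viability was read with CellTiter-Glo and normalised to DMSO (0.1%) and staurosporine (10 µM) plate controls. Normalised AUC was calculated by the trapezoidal method relative to the negative control.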

EJM (cancer type: MM) = system: EJM (cancer type: MM)
Experimental: as §1

FR4 (cancer type: MM) = system: FR4 (cancer type: MM)
Experimental: as §1

[1] = system: Granta-519 (cancer type: Mantle)
Experimental: as §1

[2] = system: HuT 78 (cancer type: TCL)
Experimental: as §1

JJN3 (cancer type: MM) = system: JJN3 (cancer type: MM)
Experimental: as §1

[3] = system: JVM2 (cancer type: Mantle)
Experimental: as §1

[4] = system: JeKo-1 (cancer type: Mantle)
Experimental: as §1

KMS11 (cancer type: MM) = system: KMS11 (cancer type: MM)
Experimental: as §1

[5] = system: KMS12PE (cancer type: MM)
Experimental: as §1

KMS18 (cancer type: MM) = system: KMS18 (cancer type: MM)
Experimental: as §1

KMS26 (cancer type: MM) = system: KMS26 (cancer type: MM)
Experimental: as §1

[6] = system: KMS28BM (cancer type: MM)
Experimental: as §1

[7] = system: KMS28PE (cancer type: MM)
Experimental: as §1

KMS34 (cancer type: MM) = system: KMS34 (cancer type: MM)
Experimental: as §1

[8] = system: Karpas-299 (cancer type: TCL)
Experimental: as §1

L363 (cancer type: MM) = system: L363 (cancer type: MM)
Experimental: as §1

LP1 (cancer type: MM) = system: LP1 (cancer type: MM)
Experimental: as §1

MM1.R (cancer type: MM) = system: MM1.R (cancer type: MM)
Experimental: as §1

MM1.S (cancer type: MM) = system: MM1.S (cancer type: MM)
Experimental: as §1

[9] = system: Mino (cancer type: Mantle)
Experimental: as §1

My-La (cancer type: TCL) = system: My-La (cancer type: TCL)
Experimental: as §1

[10] = system: NCI-H929 (cancer type: MM)
Experimental: as §1

[11] = system: OCI-LY1 (cancer type: DLBCL)
Experimental: as §1

[12] = system: OCI-LY19 (cancer type: DLBCL)
Experimental: as §1

[13] = system: OCI-LY3 (cancer type: DLBCL)
Experimental: as §1

[14] = system: OCI-MY5 (cancer type: MM)
Experimental: as §1

[15] = system: OCI-MY5/CRBN (cancer type: MM)
Experimental: as §1

[16] = system: OCI-MY5/Vec (cancer type: MM)
Experimental: as §1

[17] = system: OCI-MY7 (cancer type: MM)
Experimental: as §1

OPM2 (cancer type: MM) = system: OPM2 (cancer type: MM)
Experimental: as §1

[18] = system: RPMI 8226 (cancer type: MM)
Experimental: as §1

SKMM2 (cancer type: MM) = system: SKMM2 (cancer type: MM)
Experimental: as §1

[19] = system: SR-786 (cancer type: TCL)
Experimental: as §1

[20] = system: SU-DHL1 (cancer type: TCL)
Experimental: as §1

[21] = system: SU-DHL2 (cancer type: DLBCL)
Experimental: as §1

[22] = system: SU-DHL6 (cancer type: DLBCL)
Experimental: as §1

Se-Ax (cancer type: TCL) = system: Se-Ax (cancer type: TCL)
Experimental: as §1

U266 (cancer type: MM) = system: U266 (cancer type: MM)
Experimental: as §1

XG2 (cancer type: MM) = system: XG2 (cancer type: MM)
Experimental: as §1

| SMILES | normalized area under the dose-response curve (AMO1 (cancer type: MM)) | normalized area under the dose-response curve (EJM (cancer type: MM)) | normalized area under the dose-response curve (FR4 (cancer type: MM)) | normalized area under the dose-response curve [1] | normalized area under the dose-response curve [2] | normalized area under the dose-response curve (JJN3 (cancer type: MM)) | normalized area under the dose-response curve [3] | normalized area under the dose-response curve [4] | normalized area under the dose-response curve (KMS11 (cancer type: MM)) | normalized area under the dose-response curve [5] | normalized area under the dose-response curve (KMS18 (cancer type: MM)) | normalized area under the dose-response curve (KMS26 (cancer type: MM)) | normalized area under the dose-response curve [6] | normalized area under the dose-response curve [7] | normalized area under the dose-response curve (KMS34 (cancer type: MM)) | normalized area under the dose-response curve [8] | normalized area under the dose-response curve (L363 (cancer type: MM)) | normalized area under the dose-response curve (LP1 (cancer type: MM)) | normalized area under the dose-response curve (MM1.R (cancer type: MM)) | normalized area under the dose-response curve (MM1.S (cancer type: MM)) | normalized area under the dose-response curve [9] | normalized area under the dose-response curve (My-La (cancer type: TCL)) | normalized area under the dose-response curve [10] | normalized area under the dose-response curve [11] | normalized area under the dose-response curve [12] | normalized area under the dose-response curve [13] | normalized area under the dose-response curve [14] | normalized area under the dose-response curve [15] | normalized area under the dose-response curve [16] | normalized area under the dose-response curve [17] | normalized area under the dose-response curve (OPM2 (cancer type: MM)) | normalized area under the dose-response curve [18] | normalized area under the dose-response curve (SKMM2 (cancer type: MM)) | normalized area under the dose-response curve [19] | normalized area under the dose-response curve [20] | normalized area under the dose-response curve [21] | normalized area under the dose-response curve [22] | normalized area under the dose-response curve (Se-Ax (cancer type: TCL)) | normalized area under the dose-response curve (U266 (cancer type: MM)) | normalized area under the dose-response curve (XG2 (cancer type: MM)) |
| --- | --- | --- | --- | --- | --- | --- | --- | --- | --- | --- | --- | --- | --- | --- | --- | --- | --- | --- | --- | --- | --- | --- | --- | --- | --- | --- | --- | --- | --- | --- | --- | --- | --- | --- | --- | --- | --- | --- | --- | --- |
| CCc1cnn2c(NCc3ccc[n+]([O-])c3)cc(N3CCCC[C@H]3CCO)nc12 [Dinaciclib] | 0.03 | 0.0534 | 0.0504 | 0.625 | 0.0209 | 0.0469 | 0.259 | 0.0614 | 0.084 | 0.04 | 0.0366 | 0.0286 | 0.0793 | 0.169 | 0.124 | 0.0458 | 0.0142 | 0.0551 | 0.03 | 0.03 | 0.392 | 0.582 | 0.04 | 0.0794 | 0.414 | 0.148 | 0.0272 | 0.0017 | 0.0029 | 0.02 | 0.0465 | 0.0467 | 0.628 | 0.0218 | 0.0533 | 0.393 | 0.667 | 0.31 | 0.0357 | 0.0928 |
| Cc1ccc(-n2nc(C(C)(C)C)cc2NC(=O)Nc2ccc(OCCN3CCOCC3)c3ccccc23)cc1 [Doramapimod] | 0.842 | 0.872 | 0.932 | 0.938 | 0.812 | 0.726 | 0.687 | 1.04 | 0.782 | 0.89 | 0.926 | 0.787 | 0.887 | 0.842 | 0.737 | 0.916 | 0.801 | 0.87 | 0.88 | 0.8 | 0.97 | 0.907 | 0.87 | 0.999 | 0.645 | 0.9 | 0.693 | 0.961 | 0.916 | 0.89 | 0.834 | 0.917 | 0.969 | 0.919 | 0.737 | 0.901 | 0.858 | 0.736 | 0.634 | 0.806 |
| CC(C)(O)CNc1nc(Nc2ccnc(C(F)(F)F)c2)nc(-c2cccc(C(F)(F)F)n2)n1 [Enasidenib (Agios ag-221)] | 0.864 | 0.865 | 0.944 | 0.975 | 0.86 | 0.822 | 0.787 | 0.881 | 0.95 | 0.9 | 0.772 | 0.887 | 0.894 | 0.819 | 0.853 | 0.9 | 0.802 | 0.772 | 0.81 | 0.8 | 0.877 | 0.947 | 0.92 | 0.957 | 0.972 | 1 | 0.723 | 0.903 | 0.847 | 0.81 | 0.749 | 0.92 | 0.905 | 0.908 | 0.888 | 0.918 | 0.92 | 0.837 | 0.914 | 0.899 |
| C#Cc1cccc(Nc2ncnc3cc(OCCOC)c(OCCOC)cc23)c1 [Erlotinib hydrochloride] | 0.897 | 0.91 | 0.877 | 0.938 | 0.756 | 0.878 | 0.665 | 0.886 | 0.85 | 0.8 | 0.84 | 0.928 | 0.847 | 0.871 | 0.805 | 0.907 | 0.814 | 0.869 | 0.84 | 0.86 | 0.95 | 0.972 | 0.88 | 0.888 | 0.864 | 0.897 | 0.796 | 0.878 | 0.861 | 0.84 | 0.86 | 0.903 | 0.922 | 0.962 | 0.87 | 0.839 | 0.905 | 0.84 | 0.946 | 0.888 |
